{"source": "patent US20230183188A1", "about": "“ENPP1 MODULATORS AND USES THEREOF” (Vir Biotechnology, Inc., priority 2020, published 2023)", "note": "pIC50: −log10 of the molar value.", "data": [{"biological_target": "T1, recombinant protein containing the human ENPP1 enzymatic domain (Homo sapiens, UniProt P22413)", "T1 construct": "recombinant protein containing the human ENPP1 enzymatic domain; purchased R&D Systems 6136-EN-010", "T1 sequence (P22413 191-591 limits assumed)": "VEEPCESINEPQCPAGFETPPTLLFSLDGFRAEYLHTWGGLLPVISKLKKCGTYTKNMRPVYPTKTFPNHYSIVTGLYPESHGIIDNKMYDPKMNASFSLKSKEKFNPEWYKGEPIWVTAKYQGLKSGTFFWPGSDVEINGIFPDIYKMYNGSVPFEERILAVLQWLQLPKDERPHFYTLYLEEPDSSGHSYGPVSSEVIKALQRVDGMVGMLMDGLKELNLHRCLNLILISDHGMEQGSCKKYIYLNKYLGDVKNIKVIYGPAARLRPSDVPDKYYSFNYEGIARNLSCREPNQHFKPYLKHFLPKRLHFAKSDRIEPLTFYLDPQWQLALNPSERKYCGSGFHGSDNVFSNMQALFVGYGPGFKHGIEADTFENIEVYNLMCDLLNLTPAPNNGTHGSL", "experiment": "ENPP1 Enzymatic Inhibition Assay (2′3′-cGAMP substrate, AMP-Glo luminescence)", "format": "biochemical", "conditions": "1 nM ENPP1, 20 uM 2′3′-cGAMP substrate, 30 minutes at 37° C.", "experimental": "The inhibition of ENPP1's phosphodiesterase activity were tested in a purified enzymatic assay using 2′3′-cyclic GAMP as a substrate which allowed for the release of cleaved AMP to be monitored using a luminescent assay.\nPutative inhibitors were diluted in assay buffer (50 mM Tris pH 8.0, 250 mM NaCl, 0.5 mM CaCl2, 1 uM ZnCl2, 1% DMSO) and pre-incubated for 15 minutes at 37° C. with recombinant protein containing the human ENPP1 enzymatic domain (R&D Systems cat. #6136-EN-010). The enzymatic reaction was initiated upon addition of the 2′3′-cGAMP substrate. The final reaction concentrations were 1 nM ENPP1 and 20 uM 2′3′-cGAMP substrate in a 25 uL volume. Inhibitor concentrations ranged from 10 uM to 0.2 nM. The reaction was incubated for 30 minutes at 37° C.\nAfter reacting for 30 minutes, the amount of AMP generated from the cleavage of 2′3′-cGAMP was determined using the Promega AMP-Glo method according to the manufacturer's protocol. First, AMP-Glo reagent 1 was added and incubated with the reaction mix for 1 hour at room temperature. Second, AMP Detection solution was added and the mixture was incubated for an additional hour. The luminescence of the mixture was read on a Perkin Elmer Ensight plate reader.\nThe maximum and minimum levels of ENPP1 activity were established using no inhibitor and no enzyme controls, respectively. The activity observed using ENPP1 inhibitors was quantified as the percent of activity relative to these controls. IC50 values were calculated using GraphPad Prism by fitting a sigmoidal variable slope nonlinear regression model to the data.", "values": [{"smiles": "COc1ccc2c(Oc3ccc(S(N)(=O)=NCC(C)O)cc3)ccnc2c1", "note": "(single isomer, unassigned) [Compound 10, N′-(2-hydroxypropyl)-4-((7-methoxyquinolin-4-yl)oxy)benzenesulfonimidamide]", "pIC50": "> 8.00"}, {"smiles": "COc1ccc2c(Oc3ccc(S(=N)(=O)NC[C@@H](O)CO)cc3)ccnc2c1", "note": "(single isomer, unassigned) [Compound 45]", "pIC50": "> 8.00"}, {"smiles": "COc1ccc2c(Oc3ccc(S(=N)(=O)NC[C@H](O)CO)cc3)ccnc2c1", "note": "(single isomer, unassigned) [Compound 46]", "pIC50": "> 8.00"}, {"smiles": "COc1ccc2c(Oc3ccc(S(N)(=O)=NCC4CC4)cc3)ccnc2c1", "note": "(stereo not drawn) [Compound 1, N′-(cyclopropylmethyl)-4-((7-methoxyquinolin-4-yl)oxy)benzenesulfonimidamide]", "pIC50": "> 8.00"}, {"smiles": "CN=S(N)(=O)c1ccc(Nc2ncnc3cc(OC)ccc23)cc1", "note": "(stereo not drawn) [Compound 2, 4-((7-methoxyquinazolin-4-yl)amino)-N-methylbenzenesulfonimidamide]", "pIC50": "> 8.00"}, {"smiles": "CN=S(N)(=O)c1ccc(CNc2ccnc3cc(OC)ccc23)cc1", "note": "(stereo not drawn) [Compound 3, 4-(((7-methoxyquinolin-4-yl)amino)methyl)-N-methylbenzenesulfonimidamide]", "pIC50": "< 7.00"}, {"smiles": "CCS(=N)(=O)c1ccc(Oc2ccnc3cc(OC)ccc23)cc1", "note": "(stereo not drawn) [Compound 4, ethyl(imino)(4-((7-methoxyquinolin-4-yl)oxy)phenyl)-λ^6-sulfanone]", "pIC50": "> 8.00"}, {"smiles": "COc1ccc2c(Oc3ccc(S(N)(=O)=NC[C@H]4CCCN4C(=O)OC(C)(C)C)cc3)ccnc2c1", "note": "(stereo partly drawn) [Compound 5, tert-butyl (2R)-2-(((amino(4-((7-methoxyquinolin-4-yl)oxy)phenyl)(oxo)-I^6-sulfaneylidene)amino)methyl) pyrrolidine-1-carboxylate]", "pIC50": "7.00 to 8.00"}, {"smiles": "COc1ccc2c(Oc3ccc(S(N)(=O)=NC[C@H]4CCCN4)cc3)ccnc2c1", "note": "(stereo partly drawn) [Compound 6, 4-((7-methoxyquinolin-4-yl)oxy)-N′-(((R)-pyrrolidin-2-yl)methyl)benzenesulfonimidamide]", "pIC50": "7.00 to 8.00"}, {"smiles": "COc1ccc2c(Oc3ccc(S(N)(=O)=NCC(=O)O)cc3)ccnc2c1", "note": "(stereo not drawn) [Compound 7]", "pIC50": "7.00 to 8.00"}, {"smiles": "COc1ccc2c(Oc3ccc(S4(=O)=NC(=O)CN4)cc3)ccnc2c1", "note": "(stereo not drawn) [Compound 8, 1-(4-((7-methoxyquinolin-4-yl)oxy)phenyl)-4,5-dihydro-3H-1λ^6,2,5-thiadiazol-3-one 1-oxide]", "pIC50": "< 7.00"}, {"smiles": "COc1ccc2c(Oc3ccc(S(N)(=O)=NCCO)cc3)ccnc2c1", "note": "(stereo not drawn) [Compound 9, N-(2-hydroxyethyl)-4-((7-methoxyquinolin-4-yl)oxy)benzenesulfonimidamide]", "pIC50": "7.00 to 8.00"}, {"smiles": "COc1ccc2c(Oc3ccc(S(N)(=O)=NCC(C)(C)O)cc3)ccnc2c1", "note": "(stereo not drawn) [Compound 11, N′-(2-hydroxy-2-methylpropyl)-4-((7-methoxyquinolin-4-yl)oxy)benzenesulfonimidamide]", "pIC50": "> 8.00"}, {"smiles": "COc1ccc2c(Oc3ccc(S(N)(=O)=NCCOc4ccccn4)cc3)ccnc2c1", "note": "(stereo not drawn) [Compound 12, 4-((7-methoxyquinolin-4-yl)oxy)-N′-(2-(pyridin-2-yloxy)ethyl)benzenesulfonimidamide]", "pIC50": "> 8.00"}, {"smiles": "COc1ccc2c(Oc3ccc(S(N)(=O)=NCCOc4cccnc4)cc3)ccnc2c1", "note": "(stereo not drawn) [Compound 13, 4-((7-methoxyquinolin-4-yl)oxy)-N′-(2-(pyridin-3-yloxy)ethyl)benzenesulfonimidamide]", "pIC50": "> 8.00"}, {"smiles": "COc1ccc2c(Oc3ccc(S(N)(=O)=NCCOc4ccncc4)cc3)ccnc2c1", "note": "(stereo not drawn) [Compound 14, 4-((7-methoxyquinolin-4-yl)oxy)-N′-(2-(pyridin-4-yloxy)ethyl)benzenesulfonimidamide]", "pIC50": "> 8.00"}, {"smiles": "COc1ccc2c(Oc3ccc(S(N)(=O)=NCc4ncco4)cc3)ccnc2c1", "note": "(stereo not drawn) [Compound 15, 4-((7-methoxyquinolin-4-yl)oxy)-N′-(oxazol-2-ylmethyl)benzenesulfonimidamide]", "pIC50": "> 8.00"}, {"smiles": "COc1ccc2c(Oc3ccc(S(N)(=O)=NCc4nccn4C)cc3)ccnc2c1", "note": "(stereo not drawn) [Compound 16, 4-((7-methoxyquinolin-4-yl)oxy)-N′-((1-methyl-1H-imidazol-2-yl)methyl)benzenesulfonimidamide]", "pIC50": "> 8.00"}, {"smiles": "COc1ccc2c(Oc3ccc(S(N)(=O)=NCc4nccs4)cc3)ccnc2c1", "note": "(stereo not drawn) [Compound 17, 4-((7-methoxyquinolin-4-yl)oxy)-N′-(thiazol-2-ylmethyl)benzenesulfonimidamide]", "pIC50": "> 8.00"}, {"smiles": "COc1ccc2c(Oc3ccc(S(=N)(=O)N4CCOCC4)cc3)ccnc2c1", "note": "(stereo not drawn) [Compound 18, 4-(4-((7-methoxyquinolin-4-yl)oxy)phenylsulfonimidoyl)morpholine]", "pIC50": "< 7.00"}, {"smiles": "COc1ccc2c(Oc3ccc(S(N)(=O)=NCCc4ccccc4)cc3)ccnc2c1", "note": "(stereo not drawn) [Compound 19, 4-((7-methoxyquinolin-4-yl)oxy)-N′-phenethylbenzenesulfonimidamide]", "pIC50": "7.00 to 8.00"}, {"smiles": "COc1ccc2c(Oc3ccc(S(N)(=O)=Nc4ccccc4)cc3)ccnc2c1", "note": "(stereo not drawn) [Compound 20, 4-((7-methoxyquinolin-4-yl)oxy)-N′-phenylbenzenesulfonimidamide]", "pIC50": "7.00 to 8.00"}, {"smiles": "COc1ccc2c(Oc3ccc(S(N)(=O)=NC4CC4)cc3)ccnc2c1", "note": "(stereo not drawn) [Compound 21, N′-cyclopropyl-4-((7-methoxyquinolin-4-yl)oxy)benzenesulfonimidamide]", "pIC50": "7.00 to 8.00"}, {"smiles": "CCN=S(N)(=O)c1ccc(Oc2ccnc3cc(OC)ccc23)cc1", "note": "(stereo not drawn) [Compound 22, N′-ethyl-4-((7-methoxyquinolin-4-yl)oxy)benzenesulfonimidamide]", "pIC50": "7.00 to 8.00"}, {"smiles": "CCN(CC)S(=N)(=O)c1ccc(Oc2ccnc3cc(OC)ccc23)cc1", "note": "(stereo not drawn) [Compound 23, N,N-diethyl-4-((7-methoxyquinolin-4-yl)oxy)benzenesulfonimidamide]", "pIC50": "< 7.00"}, {"smiles": "COc1ccc2c(Oc3ccc(S(=N)(=O)N4CCCC4)cc3)ccnc2c1", "note": "(stereo not drawn) [Compound 24, 7-methoxy-4-(4-(pyrrolidine-1-sulfonimidoyl)phenoxy)quinoline]", "pIC50": "< 7.00"}, {"smiles": "COc1ccc2c(Oc3ccc(S(N)(=O)=NCc4ccccc4)cc3)ccnc2c1", "note": "(stereo not drawn) [Compound 25, N′-benzyl-4-((7-methoxyquinolin-4-yl)oxy)benzenesulfonimidamide]", "pIC50": "> 8.00"}, {"smiles": "COc1ccc2c(Oc3ccc(S(N)(=O)=NCc4ccccn4)cc3)ccnc2c1", "note": "(stereo not drawn) [Compound 26, 4-((7-methoxyquinolin-4-yl)oxy)-N′-(pyridin-2-ylmethyl)benzenesulfonimidamide]", "pIC50": "7.00 to 8.00"}, {"smiles": "COc1ccc2c(Oc3ccc(S(N)(=O)=NCc4cccnc4)cc3)ccnc2c1", "note": "(stereo not drawn) [Compound 27, 4-((7-methoxyquinolin-4-yl)oxy)-N′-(pyridin-3-ylmethyl)benzenesulfonimidamide]", "pIC50": "7.00 to 8.00"}, {"smiles": "COc1ccc2c(Oc3ccc(S(N)(=O)=NCc4ccncc4)cc3)ccnc2c1", "note": "(stereo not drawn) [Compound 28, 4-((7-methoxyquinolin-4-yl)oxy)-N′-(pyridin-4-ylmethyl)benzenesulfon imidamide]", "pIC50": "7.00 to 8.00"}, {"smiles": "COc1ccc2c(Oc3ccc(S(=N)(=O)N4CCN(C)CC4)cc3)ccnc2c1", "note": "(stereo not drawn) [Compound 29, 7-methoxy-4-(4-(4-methylpiperazine-1-sulfonimidoyl)phenoxy)quinoline]", "pIC50": "7.00 to 8.00"}, {"smiles": "COc1ccc2c(Oc3ccc(S(=N)(N)=O)cc3)ccnc2c1", "note": "(stereo not drawn) [Compound 30, 4-((7-methoxyquinolin-4-yl)oxy)benzenesulfonimidamide]", "pIC50": "7.00 to 8.00"}, {"smiles": "CNS(=N)(=O)c1ccc(Oc2ccnc3cc(OC)ccc23)cc1", "note": "(stereo not drawn) [Compound 31, 4-((7-methoxyquinolin-4-yl)oxy)-N′-methylbenzenesulfonimidamide]", "pIC50": "7.00 to 8.00"}]}]}
